The record followed here is ChEMBL document CHEMBL5126575, “Synthesis of a new series of quinoline/pyridine indole-3-sulfonamide hybrids as selective carbonic anhydrase IX inhibitors” (Bioorg Med Chem Lett, 2022).

By Ki is commonly meant a dissociation constant, usually derived from enzyme kinetics or from competition with a known ligand.

One experiment concerns the target Carbonic anhydrase 9 (Homo sapiens, UniProt Q16790). Briefly: Inhibition of human carbonic anhydrase 9 by stopped flow CO2 assay.
The next experiment deals with Carbonic anhydrase 2 (Homo sapiens, UniProt P00918). Nature of the experiment: Inhibition of human carbonic anhydrase 2 by stopped flow CO2 assay.
A further experiment concerns the target Carbonic anhydrase 12 (Homo sapiens, UniProt O43570).
Another experiment addresses Carbonic anhydrase 1 (Homo sapiens, UniProt P00915). Nature of the experiment: Inhibition of human carbonic anhydrase 1 by stopped flow CO2 assay.

The structures appear in SMILES notation.

Carbonic anhydrase 12, sequence (O43570 whole entry): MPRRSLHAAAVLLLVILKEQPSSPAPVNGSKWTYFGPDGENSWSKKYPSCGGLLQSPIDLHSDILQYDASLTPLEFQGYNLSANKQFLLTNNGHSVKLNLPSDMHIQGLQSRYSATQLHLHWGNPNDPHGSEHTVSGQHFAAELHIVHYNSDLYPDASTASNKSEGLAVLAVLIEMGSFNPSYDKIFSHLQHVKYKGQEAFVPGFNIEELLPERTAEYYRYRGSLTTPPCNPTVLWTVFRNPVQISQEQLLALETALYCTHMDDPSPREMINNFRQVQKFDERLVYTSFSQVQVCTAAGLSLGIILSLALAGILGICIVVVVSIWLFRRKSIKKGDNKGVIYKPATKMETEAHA
Carbonic anhydrase 1, sequence (P00915 whole entry): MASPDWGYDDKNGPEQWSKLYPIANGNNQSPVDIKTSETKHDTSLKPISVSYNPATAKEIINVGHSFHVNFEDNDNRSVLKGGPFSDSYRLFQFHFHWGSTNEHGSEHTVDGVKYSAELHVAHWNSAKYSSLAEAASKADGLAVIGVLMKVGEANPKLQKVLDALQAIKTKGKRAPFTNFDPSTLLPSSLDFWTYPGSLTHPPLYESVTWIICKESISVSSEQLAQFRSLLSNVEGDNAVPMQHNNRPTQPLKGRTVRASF
Description for Carbonic anhydrase 12: Inhibition of human carbonic anhydrase 12 by stopped flow CO2 assay

For the compound `Cn1cc(S(N)(=O)=O)c2cc(NC(=O)c3cc(Cl)nc(Br)c3)ccc21`, the Ki on Carbonic anhydrase 9 is 15.9 µM; on Carbonic anhydrase 2, over 100 µM; at Carbonic anhydrase 12 it was over 100 µM; at Carbonic anhydrase 1, over 100 µM.

Consider `COc1ccc2nc(-c3ccccc3)cc(C(=O)Nc3ccc4c(c3)c(S(N)(=O)=O)cn4C)c2c1`, for which the inhibition constant (Ki) on Carbonic anhydrase 9 was 45 µM; at Carbonic anhydrase 2 it was over 100 µM; on Carbonic anhydrase 12, over 100 µM; on Carbonic anhydrase 1 it was over 100 µM.

In the case of `CCn1cc(S(N)(=O)=O)c2cc(NC(=O)c3cc(-c4ccccc4OC)nc4ccc(OC)cc34)ccc21`, the inhibition constant (Ki) on Carbonic anhydrase 9 is 26.7 µM; at Carbonic anhydrase 2, over 100 µM; at Carbonic anhydrase 12, over 100 µM; on Carbonic anhydrase 1, over 100 µM.

Turning to `CCn1cc(S(N)(=O)=O)c2cc(NC(=O)c3cc(-c4ccccc4Cl)nc4ccccc34)ccc21`, the Ki on Carbonic anhydrase 9 is 1.57 µM; at Carbonic anhydrase 1, over 100 µM.

Consider `CCn1cc(S(N)(=O)=O)c2cc(NC(=O)c3cc(-c4ccc(Cl)cc4)nc4ccccc34)ccc21`, for which the figures for the Ki at Carbonic anhydrase 9 and at Carbonic anhydrase 1 were 5.56 µM and over 100 µM, respectively.

On to `CCn1cc(S(N)(=O)=O)c2cc(NC(=O)c3ccncc3)ccc21`, for which the Ki on Carbonic anhydrase 9 is 21.6 µM; at Carbonic anhydrase 2, over 100 µM; on Carbonic anhydrase 12, over 100 µM; at Carbonic anhydrase 1, over 100 µM.

For `CCn1cc(S(N)(=O)=O)c2cc(NC(=O)c3ccnc(N)c3)ccc21`, the Ki on Carbonic anhydrase 9 was 19.8 µM; on Carbonic anhydrase 2, over 100 µM; on Carbonic anhydrase 12, over 100 µM; on Carbonic anhydrase 1, over 100 µM.

On to `Cn1cc(S(N)(=O)=O)c2cc(NC(=O)c3cc(-c4ccc(Cl)cc4)nc4ccccc34)ccc21`, for which the values for the inhibition constant Ki at Carbonic anhydrase 9, at Carbonic anhydrase 12 and on Carbonic anhydrase 1 were 18.5 µM, over 100 µM and over 100 µM, respectively.

Regarding `CCn1cc(S(N)(=O)=O)c2cc(NC(=O)c3ccnc(Br)c3)ccc21`, the Ki is 8.21 µM at Carbonic anhydrase 9 and over 100 µM at Carbonic anhydrase 1.

`COc1ccc2nc(-c3ccccc3OC)cc(C(=O)Nc3ccc4c(c3)c(S(N)(=O)=O)cn4C)c2c1`: the Ki on Carbonic anhydrase 9 is 38.9 µM; on Carbonic anhydrase 2, over 100 µM; at Carbonic anhydrase 12 it was over 100 µM; on Carbonic anhydrase 1, over 100 µM.

Turning to `Cn1cc(S(N)(=O)=O)c2cc(NC(=O)c3ccnc(N)c3)ccc21`, the inhibition constant (Ki) on Carbonic anhydrase 9 is 34.6 µM; on Carbonic anhydrase 2 it was over 100 µM; at Carbonic anhydrase 12 it was over 100 µM; on Carbonic anhydrase 1, over 100 µM.

Turning to `COc1ccc(-c2cc(C(=O)Nc3ccc4c(c3)c(S(N)(=O)=O)cn4C)c3ccccc3n2)cc1OC`, the Ki at Carbonic anhydrase 9 is 69.3 µM; on Carbonic anhydrase 2, over 100 µM; at Carbonic anhydrase 12 it was over 100 µM; on Carbonic anhydrase 1, over 100 µM.

As for `CCn1cc(S(N)(=O)=O)c2cc(NC(=O)c3cc(-c4ccccc4)nc4ccc(OC)cc34)ccc21`, the Ki was 40.2 µM on Carbonic anhydrase 9, over 100 µM on Carbonic anhydrase 2, over 100 µM on Carbonic anhydrase 12 and over 100 µM at Carbonic anhydrase 1.

Turning to `CCn1cc(S(N)(=O)=O)c2cc(NC(=O)c3cc(-c4ccc(Cl)cc4Cl)nc4ccccc34)ccc21`, the Ki is 1.47 µM at Carbonic anhydrase 9 and over 100 µM at Carbonic anhydrase 1.

For `CCn1cc(S(N)(=O)=O)c2cc(NC(=O)c3cc(Cl)nc(Br)c3)ccc21`, the Ki on Carbonic anhydrase 9 is 8.78 µM; at Carbonic anhydrase 1, over 100 µM.

Take `CCn1cc(S(N)(=O)=O)c2cc(NC(=O)c3cc(-c4ccccc4)nc4ccccc34)ccc21`: the Ki at Carbonic anhydrase 9, on Carbonic anhydrase 2, on Carbonic anhydrase 12 and at Carbonic anhydrase 1 was over 100 µM in each case.

As for `Cn1cc(S(N)(=O)=O)c2cc(NC(=O)c3ccnc(O)c3)ccc21`, the Ki on Carbonic anhydrase 9 was 9.05 µM; at Carbonic anhydrase 2, over 100 µM; at Carbonic anhydrase 1, over 100 µM.

Take `COc1ccc2nc(-c3ccccc3C)cc(C(=O)Nc3ccc4c(c3)c(S(N)(=O)=O)cn4C)c2c1`: the Ki was 16.3 µM at Carbonic anhydrase 9, over 100 µM on Carbonic anhydrase 12 and over 100 µM on Carbonic anhydrase 1.

Turning to `CCn1cc(S(N)(=O)=O)c2cc(NC(=O)c3ccnc(O)c3)ccc21`, the Ki on Carbonic anhydrase 9 was 5.33 µM; at Carbonic anhydrase 2, over 100 µM; at Carbonic anhydrase 1 it was over 100 µM.

For `CCn1cc(S(N)(=O)=O)c2cc(NC(=O)c3ccnc(Cl)c3)ccc21`, the Ki on Carbonic anhydrase 9 was 5.93 µM; at Carbonic anhydrase 1 it was over 100 µM.

Take `Cn1cc(S(N)(=O)=O)c2cc(NC(=O)c3cc(-c4ccccc4)nc4ccccc34)ccc21`: the Ki at Carbonic anhydrase 9 was 82.4 µM; on Carbonic anhydrase 2 it was over 100 µM; at Carbonic anhydrase 12, over 100 µM; on Carbonic anhydrase 1, over 100 µM.

`CCn1cc(S(N)(=O)=O)c2cc(NC(=O)c3cc(-c4ccc(OC)c(OC)c4)nc4ccccc34)ccc21`: the Ki at Carbonic anhydrase 9 was 35.8 µM; on Carbonic anhydrase 2, over 100 µM; on Carbonic anhydrase 12, over 100 µM; at Carbonic anhydrase 1, over 100 µM.

With `CCn1cc(S(N)(=O)=O)c2cc(NC(=O)c3cc(-c4ccc5c(c4)OCO5)nc4ccccc34)ccc21`, the results for the inhibitory constant (Ki) at Carbonic anhydrase 9 and at Carbonic anhydrase 1 were 7.51 µM and over 100 µM, respectively.

Take `CCn1cc(S(N)(=O)=O)c2cc(NC(=O)c3cc(-c4cc(Cl)cc(Cl)c4)nc4ccc(OC)cc34)ccc21`: the Ki on Carbonic anhydrase 9 was 4.23 µM; at Carbonic anhydrase 1, over 100 µM.

As to `Cn1cc(S(N)(=O)=O)c2cc(NC(=O)c3ccnc(Br)c3)ccc21`, the inhibition constant Ki at Carbonic anhydrase 9 is 8.16 µM; on Carbonic anhydrase 2 it was over 100 µM; on Carbonic anhydrase 1, over 100 µM.

For `CCn1cc(S(N)(=O)=O)c2cc(NC(=O)c3cc(-c4ccc(OC)cc4OC)nc4ccc(OC)cc34)ccc21`, the Ki is 59.5 µM on Carbonic anhydrase 9, over 100 µM on Carbonic anhydrase 12 and over 100 µM on Carbonic anhydrase 1.

Turning to `Cn1cc(S(N)(=O)=O)c2cc(NC(=O)c3ccnc(Cl)c3)ccc21`, the Ki at Carbonic anhydrase 9 was 5.93 µM; at Carbonic anhydrase 2, over 100 µM; on Carbonic anhydrase 1, over 100 µM.

In the case of `CCn1cc(S(N)(=O)=O)c2cc(NC(=O)c3cc(-c4ccccc4C)nc4ccc(OC)cc34)ccc21`, the figures for the Ki at Carbonic anhydrase 9 and on Carbonic anhydrase 1 were 8.65 µM and over 100 µM, respectively.
